Drawing on US20110230403A1, “GLYCOSIDE DERIVATIVES AND USES THEREOF” (NOVARTIS AG, priority 2008, published 2011), this text covers IC50 for six molecules.

The target of one experiment is T1, human SGLT1 (Homo sapiens, UniProt P13866).
T1 construct: expressed in transfected cells; host or cells: CHO-K1 or HEK293 cells
T1 sequence (P13866 1-664): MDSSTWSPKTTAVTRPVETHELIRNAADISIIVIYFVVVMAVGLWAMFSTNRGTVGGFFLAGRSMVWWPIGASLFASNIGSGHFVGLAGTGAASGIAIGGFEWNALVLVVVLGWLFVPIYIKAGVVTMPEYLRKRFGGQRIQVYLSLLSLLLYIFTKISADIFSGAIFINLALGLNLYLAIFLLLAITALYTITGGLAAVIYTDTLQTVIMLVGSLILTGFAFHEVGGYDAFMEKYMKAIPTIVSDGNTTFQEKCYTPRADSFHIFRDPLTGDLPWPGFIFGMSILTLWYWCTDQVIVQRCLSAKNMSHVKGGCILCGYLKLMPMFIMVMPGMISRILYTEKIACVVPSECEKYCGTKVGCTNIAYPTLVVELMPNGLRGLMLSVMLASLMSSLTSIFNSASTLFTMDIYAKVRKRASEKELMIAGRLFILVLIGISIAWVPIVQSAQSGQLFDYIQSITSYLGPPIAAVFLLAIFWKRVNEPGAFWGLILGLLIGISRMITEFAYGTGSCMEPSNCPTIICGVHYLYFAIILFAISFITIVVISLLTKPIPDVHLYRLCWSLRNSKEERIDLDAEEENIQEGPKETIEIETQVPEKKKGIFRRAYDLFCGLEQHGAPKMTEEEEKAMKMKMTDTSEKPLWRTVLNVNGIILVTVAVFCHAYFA
The experiment in a line: hSGLT1 assay: analogous [14C]-AMG uptake in CHO-K1 or HEK293 cells expressing hSGLT1. It counts as cell-based. Particulars: n = 1-4, hSGLT1-transfected cells. Here is the method:
To determine human SGLT1 inhibitory activity, an analogous test was set up in which the cDNA for hSGLTI (Genbank Ace. No. NM000343) instead of hSGLT2 cDNA is expressed in CHO-K1 or HEK293 cells. The uptake assay buffer in the case of the hSGLT1 assay contains 10 mM HEPES, 5 mM Tris, 140 mM NaCl, 2 mM KCl, 1 mM CaCl2, and 1 mM MgCl2, pH 7.4 containing 0.5 mM of α-methyl-D-glucopyranoside (AMG), 10 μM of [^14C]-α-methyl-D-glucopyranoside and different inhibitor concentrations.

The target in experiment [1] is T2, human sodium glucose cotransporter 2 (Homo sapiens, UniProt P31639).
T2 construct: expressed in transfected cells; host or cells: CHO-K1 (ATCC CCL-61) or HEK293 (ATCC CRL-1573), stably transfected with pZeoSV expression vector
T2 sequence (P31639 1-672): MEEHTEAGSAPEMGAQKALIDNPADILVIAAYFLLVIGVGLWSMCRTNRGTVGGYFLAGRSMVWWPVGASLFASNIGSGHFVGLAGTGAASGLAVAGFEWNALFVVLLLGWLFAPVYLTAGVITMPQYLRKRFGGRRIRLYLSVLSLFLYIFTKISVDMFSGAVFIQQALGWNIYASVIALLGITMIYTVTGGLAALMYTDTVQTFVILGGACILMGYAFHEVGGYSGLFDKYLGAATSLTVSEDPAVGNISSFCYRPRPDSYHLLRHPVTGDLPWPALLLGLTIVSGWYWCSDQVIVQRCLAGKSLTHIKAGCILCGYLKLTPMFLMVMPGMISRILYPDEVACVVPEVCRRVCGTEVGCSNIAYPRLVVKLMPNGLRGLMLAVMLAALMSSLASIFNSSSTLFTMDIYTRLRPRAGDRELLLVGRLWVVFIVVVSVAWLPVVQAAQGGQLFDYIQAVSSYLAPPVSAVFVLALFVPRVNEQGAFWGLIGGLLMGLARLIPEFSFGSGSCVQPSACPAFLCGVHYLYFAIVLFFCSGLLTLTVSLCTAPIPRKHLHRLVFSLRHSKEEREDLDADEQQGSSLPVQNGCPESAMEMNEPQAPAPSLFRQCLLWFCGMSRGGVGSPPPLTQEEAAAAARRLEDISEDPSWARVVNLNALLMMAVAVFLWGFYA
The experiment in a line: SGLT-2 assay: 14C-AMG uptake in CHO-hSGLT2 or HEK293-hSGLT2 cells. The class given is cell-based. The settings on record: n = 1-4, hSGLT2-transfected cells, read-out: SGLT2 IC50 nM (n = 1-4). Here is the method: These cell lines transport 14 C-labelled alpha-methyl-glucopyranoside (14 C-AMG, Amersham) into the interior of the cell in sodium-dependent manner.
The SGLT-2 assay is carried out as follows: CHO-hSGLT2 cells are cultivated in Ham's F12 Medium (BioWhittaker) with 10% foetal calf serum and 250 μg/mL zeocin (Invitrogen), and HEK293-hSGLT2 cells are cultivated in DMEM medium with 10% foetal calf serum and 250 μg/mL zeocin (Invitrogen). The cells are detached from the culture flasks by washing twice with PBS and subsequently treating with trypsin/EDTA. After the addition of cell culture medium the cells are centrifuged, resuspended in culture medium and counted in a Casy cell counter. Then 40,000 cells per well are seeded into a white, 96-well plate coated with poly-D-Iysine and incubated overnight at 37° C., 5% CO2. The cells are washenwice with 250 μl of assay buffer (Hanks Balanced Salt Solution, 137 mM NaCl, 5.4 mM KCl, 2.8 mM CaCl2, 1.2 mM MgSO4 and 10 mM HEPES (pH 7.4), 50 μg/mL of gentamycin). 250 μl of assay buffer and 5 μl of test compound are then added to each well and the plate is incubated for a further 15 minutes in the incubator. 5 μl of 10% DMSO are used as the negative control. The reaction is started by adding 5 μl of 14 C-AMG (0.05 μCi) to each well. After 2 hours' incubation at 37° C., 5% CO2, the cells are washed again with 250 μl of PBS (200C) and then lysed by the addition of 25 μl of 0.1 N NaOH (5 min. at 37° C.). 200 μl of MicroScint20 (Packard) are added to each well and incubation is continued for a further 20 min at 37° C. After this incubation the radioactivity of the 14 C-AMG absorbed is measured in a Topcount (Packard) using a 14 C scintillation program.

One may read the IC50 as the concentration that gives 50% inhibition.

On to `CCOc1ccc(Cc2cc([C@@H]3O[C@H](CSc4cc(C(=O)N5CCC5)ccc4F)[C@@H](O)[C@H](O)[C@H]3O)ccc2Cl)cc1` [Example 37, Azetidin-1-yl-(3-{(2S,3S,4R,5R,6S)-6-[4-chloro-3-(4-ethoxy-benzyl)-phenyl]-3,4,5-trihydroxy-tetrahydro-pyran-2-ylmethylsulfanyl}-4-fluoro-phenyl)-methanone], for which the IC50 on human SGLT1 was less than 50 nM; in experiment [1] it was 3 nM.

Regarding `CCOc1ccc(Cc2cc([C@@H]3O[C@H](CSc4cccc(C(=O)NC)c4)[C@@H](O)[C@H](O)[C@H]3O)ccc2Cl)cc1` [Example 40, 3-{(2S,3S,4R,5R,6S)-6-[4-Chloro-3-(4-ethoxy-benzyl)-phenyl]-3,4,5-trihydroxy-tetrahydro-pyran-2-ylmethylsulfanyl}-N-methyl-benzamide], the IC50 is less than 50 nM on human SGLT1 and 13 nM in experiment [1].

`CCOc1ccc(Cc2cc([C@@H]3O[C@H](CSc4cccc(C(=O)N5CCCC5)c4)[C@@H](O)[C@H](O)[C@H]3O)ccc2Cl)cc1` [Example 47, (3-{(2S,3S,4R,5R,6S)-6-[4-Chloro-3-(4-ethoxy-benzyl)-phenyl]-3,4,5-trihydroxy-tetrahydro-pyran-2-ylmethylsulfanyl}-phenyl)-pyrrolidin-1 yl-methanone]: the IC50 is less than 50 nM against human SGLT1 and 14 nM in experiment [1].

In the case of `CCOc1ccc(Cc2cc([C@@H]3O[C@H](CSc4cccc(C(=O)N(C)C)c4)[C@@H](O)[C@H](O)[C@H]3O)ccc2Cl)cc1` [Example 50, 3-{(2S,3S,4R,5R,6S)-6-[4-Chloro-3-(4-ethoxy-benzyl)-phenyl]-3,4,5-trihydroxy-tetrahydro-pyran-2-ylmethylsulfanyl}-N,N-dimethyl-benzamide], the IC50 at human SGLT1 was less than 50 nM; in experiment [1], 8 nM.

In the case of `CCOc1ccc(Cc2cc([C@@H]3O[C@H](CSc4cccc(C(N)=O)c4)[C@@H](O)[C@H](O)[C@H]3O)ccc2Cl)cc1` [Example 78, 3-{(2S,3S,4R,5R,6S)-6-[4-Chloro-3-(4-ethoxy-benzyl)-phenyl]-3,4,5-trihydroxy-tetrahydro-pyran-2-ylmethylsulfanyl}-benzamide], the figures for the IC50 (against human SGLT1; in experiment [1]) were less than 100 nM and 42 nM, respectively.

For the molecule `CCOc1ccc(Cc2cc([C@@H]3O[C@H](CSc4cccc(NC(C)=O)c4)[C@@H](O)[C@H](O)[C@H]3O)ccc2Cl)cc1` [Example 80, N-(3-{(2S,3S,4R,5R,6S)-6-[4-Chloro-3-(4-ethoxy-benzyl)-phenyl]-3,4,5-trihydroxy-tetrahydro-pyran-2-ylmethylsulfanyl}-phenyl)-acetamide], the IC50 was less than 100 nM against human SGLT1 and 13 nM in experiment [1].
